# Values quoted from earlier work, collected in US20240382500A1, “DOPAMINE RECEPTOR AGONISTS OR ANGIOTENSIN RECEPTOR BLOCKERS OR COMBINATIONS THEREOF FOR COVID-19 SEQUELAE” (priority 2023, published 2024).
# Assays:
# [1] = 250 mg/day, characterized as a low dose
# [2] = system: natural killer cells (NKCs)
# [3] = in vivo
# [4] = dosages up to 15 mg/day, subjects with early-stage Parkinson's disease
smiles,measurement,setting,value
CCOc1nc2cccc(C(=O)O)c2n1Cc1ccc(-c2ccccc2-c2nn[nH]n2)cc1 [Candesartan],microglial phagocytosis,microglia,strengthens
same,action of ANG II on ICAM-1,ICAM-1,inhibit
same,HMGB1,HMGB1,lower
Oc1cc2c(cc1O)C(c1ccccc1)CNCC2 (centres unmarked) [SKF38393],tolerability in preclinical studies,,well tolerated
same,clinical benefit in schizophrenia,[1],failed to show a clinical benefit
same,NKC cytotoxicity,[2],augments
Cc1cc(Oc2ncccc2C(F)(F)F)ccc1-c1c(C)c(=O)[nH]c(=O)n1C [PF-06649751],safety and tolerability in human subjects,[3],safe and well tolerated
same,motor symptoms,[4],significant improvement
